From PMC8400343, “Synthesis and Evaluation of the Antidepressant-like Properties of HBK-10, a Novel 2-Methoxyphenylpiperazine Derivative Targeting the 5-HT1A and D2 Receptors” (Pharmaceuticals, 2021)

Assays:
mice = assay: Rotarod test in mice; type: in vivo, mouse
Method: (§1) This experimental procedure was described in detail in our earlier studies. Briefly, mice were trained on the rotarod apparatus (May Commat RR0711, Turkey; rod diameter: 2 cm) every day for 3 consecutive days. During each training session, mice were placed for 3 min on the rotating rod (24 rpm, constant speed) with an unlimited number of trials. The experiment was performed 24 h after the last training session. On the test day, mice were injected with HBK-10, and 30 min after the administration tested on the rotarod (24 rpm, constant speed). Motor impairment was regarded as the inability to remain on the rotating rod for 60 s and was expressed as the % of animals that fell off the rotating rod.

Rotarod test in mice = type: in vivo, mouse; conditions: mouse, in vivo; ip, log-probit method
Method: as §1

[1] = system: corticosterone-treated mice; assay: Forced swim test in corticosterone-induced mouse model of depression; type: in vivo; conditions: for Decrease of immobility in the forced swim test in corticosterone-treated mice: chronic (3 weeks)
Method: The experiment was performed on mice according to the method described by Porsolt et al. and as previously described. Mice were placed individually in glass cylinders (height 25 cm, diameter 10 cm) filled with water at 24 ± 1 °C to a depth of 10 cm and left there for 6 min. Following a 2 min habituation period, total time spent immobile was recorded during the next 4 min. The animal was considered as immobile when it remained floating passively in the water, making only small movements to keep its head above the water. The experiments were video-recorded and scored using elevenmaze.com software by a trained observer blind to the treatments.
Mice were injected with corticosterone (sc, 20 mg/kg) at random times during the light phase for 21 days. The dose and route of administration of corticosterone were based on our previous study. Control mice received saline containing 0.1% dimethyl sulfoxide (DMSO) and 0.1% Tween (sc). For the next 21 days, 30 min before the corticosterone injection, mice were injected with saline, HBK-10 (0.625 or 1.25 mg/kg), or fluoxetine (15 mg/kg) (ip). Twenty-four hours after the last injection, animals were tested in the forced swim test and locomotor activity test (Figure 8).

[2] = Metabolic stability in mouse liver microsomes (MLMs); type: in vitro ADME
Method: Next, the target compound was incubated with mouse liver microsomes in the presence of an NADPH regenerating system. In the initial screening phase, the percentage of the parent compound recovered after 30 min of incubation was calculated (Table 2). […] The assay was performed with mouse liver microsomes from male CD-1. […] Metabolic reactions were initiated by the addition of the NADPH regenerating system, containing NADP, glucose-6-phosphate, and glucose-6-phosphate dehydrogenase. […] Enzymatic reactions were quenched by perchloric acid followed by addition of internal standard (pentoxifylline). Negative controls were performed without NADPH-regenerating system. After centrifugation, samples were analyzed by LC/MS (UPLC/MS, Waters Corporation, Milford, MA, USA). In vitro half time (t1/2) and intrinsic clearance (Clint) of test compound in liver microsomes were determined according to literature procedures.

[3] = MTT viability assay in HepG2 cells; type: cell-based; conditions: human, % of control, read-out: Viability (% ± SEM)
Method: To investigate the lack of hepatotoxicity of HBK-10 at 25 µM concentration, we used HepG2 cells. Viability was measured using 3-(4,5-dimethyl-thiazol-2-yl)-2,5-diphenyltetrazolium (MTT) assay. We chose 25 µM since such concentration was used in metabolic stability studies.
To investigate the preliminary hepatic safety of HBK-10 at the concentration used in metabolic stability study, a human hepatocellular carcinoma cell line—HepG2 (HB-8065TM, ATCC, Manassas, VA, USA) was used in the study. HepG2 cells were cultured in standard conditions (37 °C, 5% CO2, 95% humidity) in appropriate culture medium (according to manufacturer procedure), supplemented with 10% fetal bovine serum (FBS, Gibco, Thermo Fisher Scientific, Waltham, MA, USA) and antibiotics (1% streptomycin/penicillin mixture; Sigma-Aldrich, Steinheim, Germany). Cells were seeded in 96-well plates at density of 1 × 10^4 per well. After 24 h cells were treated with two doses of HBK-10 (5 and 25 µM, solvent—PBS) and incubated for additional 24 h. Following the incubation cells viability was measured with MTT assay. For this purpose, MTT reagent (3-(4,5-dimethylthiazol-2-yl)-2,5-diphenyltetrazolium bromide) (Sigma Aldrich, Steinheim, Germany) was added to each well at the concentration 0.5 mg/mL. After 4 h incubation at 37 °C, the medium was aspirated, and formazan crystals produced in the cells were dissolved in DMSO. Then the absorbance of solution was determined at 570 nm (A570) on plate reader (Spectra iD3 Max, Molecular Devices; San Jose, CA, USA). Viability (% of control) was determined by dividing A570 of experimental wells by of A570 of control wells × 100%.

CCC(CN1CCN(c2ccccc2OC)CC1)NCCCOc1c(C)cccc1C.Cl.Cl (stereo not drawn) [HBK-10, N-(3-(2,6-dimethylphenoxy)propyl)-1-(4-(2-methoxyphenyl)piperazin-1-yl)butan-2-amine dihydrochloride]
% of Animals That Fell from Rotating Rod (mice; 40 mg/kg ip): 29% | % of Animals That Fell from Rotating Rod (mice; 45 mg/kg ip): 63% | % of Animals That Fell from Rotating Rod (mice; 60 mg/kg ip): 86% | TD50 at 30 min (Rotarod test in mice): 44.3 mg/kg | Decrease of immobility in the forced swim test in corticosterone-treated mice ([1]; 0.625 mg/kg ip): 30.9% | Decrease of immobility in the forced swim test in corticosterone-treated mice ([1]; 1.25 mg/kg ip): 39.5% | Active dose in corticosterone model, fold lower than fluoxetine ([1]; chronic administration): 24 fold | Active dose in corticosterone model, fold lower than HBK-15 ([1]; comparator data ref 21): 2 fold | Recovery percent of parent compound after 30 min, fold higher than buspirone [2]: more than 100 fold | half-life at 20 µM ([2]; male, CD-1, mouse, liver microsomes, pH 7.4, protein concentration 0.8): 25 min | remaining at 0.5 h, 20 µM ([2]; male, CD-1, mouse, liver microsomes, pH 7.4, protein concentration 0.8, NADPH regenerating system, read-out: % Remaining after 30 min): 36% | microsomal CLint at 20 µM ([2]; male, CD-1, mouse, liver microsomes, pH 7.4, protein concentration 0.8, read-out: Intrinsic Clearance (Clint)): 34.6 µL/min/mg | viability at 24 h, 1 µM ([3]; HBK-10 1 μM): 102 ± 3.3% | viability at 24 h, 5 µM ([3]; HBK-10 5 μM): 109 ± 0.9% | viability at 24 h, 25 µM ([3]; HBK-10 25 μM): 99 ± 2.4%
